Laboratory results as given in patent US7029886B1, “Enzymatic substrate, synthesis method and uses” (Bio Merieux, priority 1999, dated 2006).
Marks after values point to notes of the source that are not given here.

Experiments:
[1] = test system: E. faecium 255; experiment: Influence of the incubation atmosphere on revelation of β-D-galactosidase (Table IV)
[2] = test system: E. cloacae 061; experiment: as above
[3] = test system: S. marcescens 042; experiment: as above; details: 48 H
[4] = test system: E. coli 206; experiment: as above
[5] = test system: E. coli 115; experiment: as above
[6] = test system: E. coli, K. pneumoniae, P. rettgeri, E. cloacae, S. marcescens and S. typhimurium; type: cell-based; details: Columbia agar, 37° C. overnight
Experimental: (§1) The CBR-gal substrate is incorporated into a Columbia agar at the following concentrations: 2, 6, 10 and 20 mg/100 ml, and the medium thus prepared is distributed into dishes. Each dish is inoculated with the following organisms: E. coli (NCTC, 10418), K. pneumoniae (NCTC, 10896), P. rettgeri (NCTC, 7475), E. cloacae (NCTC, 11936), S. marcescens (NCTC, 10211) and S. typhimurium (NCTC, 74). IPTG is incorporated into all these media, at a concentration of 3 mg per 100 ml of Columbia agar. All the dishes are incubated at 37° C. overnight.

[7] = test system: E. coli (NCTC, 10418); experiment: CBR-gal in Columbia agar (solid medium); type: cell-based; details: 2, 6, 10 and 20 mg/100 ml, 37° C. overnight
Experimental: as §1

[8] = test system: E. cloacae (NCTC, 11936); experiment: CBR-gal in Columbia agar (solid medium); type: cell-based; details: 2, 6, 10 and 20 mg/100 ml, 37° C. overnight
Experimental: as §1

[9] = test system: S. marcescens (NCTC, 10211); experiment: CBR-gal in Columbia agar (solid medium); type: cell-based; details: 2, 6, 10 and 20 mg/100 ml, 37° C. overnight
Experimental: as §1

[10] = test system: K. pneumoniae (NCTC, 10896); experiment: CBR-gal in Columbia agar (solid medium); type: cell-based; details: 2, 6, 10 and 20 mg/100 ml, 37° C. overnight
Experimental: as §1

[11] = test system: P. rettgeri (NCTC, 7475); experiment: CBR-gal in a liquid medium, pink coloration over time (Table V); type: cell-based; design: key: — signifies a lack of coloration, even after 24 hours
Experimental: (§2) The CBR-gal substrate is tested in a liquid medium, at various concentrations from 0.5 mg/ml to 0.0078 mg/ml. The liquid reaction medium into which the substrate is incorporated is composed of a phosphate buffer, pH 7.4, containing 0.5% of nutrient broth and 0.5% of NaCl. 30 microliters/ml of IPTG are added to the medium for all the substrate concentrations. The strains tested are E. coli (NCTC, 10418), K. pneumoniae (NCTC, 10896), P. rettgeri (NCTC, 7475), E. cloacae (NCTC, 11936), S. marcescens (NCTC, 10211) and S. typhimurium (NCTC, 74), with an inoculum of 0.5 McFarland.

[12] = test system: S. typhimurium (NCTC, 74); experiment: as above; type: cell-based; design: key: — signifies a lack of coloration, even after 24 hours
Experimental: as §2

[13] = test system: E. coli (NCTC, 10418); experiment: as above; type: cell-based; design: key: — signifies a lack of coloration, even after 24 hours
Experimental: as §2

[14] = test system: E. cloacae (NCTC, 11936); experiment: as above; type: cell-based; design: key: — signifies a lack of coloration, even after 24 hours
Experimental: as §2

[15] = test system: S. marcescens (NCTC, 10211); experiment: as above; type: cell-based; design: key: — signifies a lack of coloration, even after 24 hours
Experimental: as §2

[16] = test system: K. pneumoniae (NCTC, 10896); experiment: as above; type: cell-based; design: key: — signifies a lack of coloration, even after 24 hours
Experimental: as §2

OC[C@H]1O[C@@H](Oc2c[nH]c3ccc(Br)c(Cl)c23)[C@H](O)[C@@H](O)[C@H]1O [X-Gal, reference compound]
intensity of coloration (arbitrary scale based on a visual observation) ([1]; 24 H, AE (aerobiosis)): 1 | intensity of coloration (arbitrary scale based on a visual observation) ([1]; 48 H, AE (aerobiosis)): 3 | intensity of coloration (arbitrary scale based on a visual observation) ([1]; 48 H, CO2): 1 | intensity of coloration (arbitrary scale based on a visual observation) ([1]; 48 H, MAP (microaerophily)): 1 | intensity of coloration (arbitrary scale based on a visual observation) ([2]; 24 H, AE (aerobiosis)): 2 | intensity of coloration (arbitrary scale based on a visual observation) ([2]; 24 H, CO2): 2 | intensity of coloration (arbitrary scale based on a visual observation) ([2]; 24 H, MAP (microaerophily)): 1 | intensity of coloration (arbitrary scale based on a visual observation) ([2]; 48 H, AE (aerobiosis)): 2 | intensity of coloration (arbitrary scale based on a visual observation) ([2]; 48 H, ANA (anaerobiosis)): 1 | intensity of coloration (arbitrary scale based on a visual observation) ([2]; 48 H, CO2): 2 | intensity of coloration (arbitrary scale based on a visual observation) ([2]; 48 H, MAP (microaerophily)): 1 | intensity of coloration (arbitrary scale based on a visual observation) ([3]; AE (aerobiosis)): 1 | intensity of coloration (arbitrary scale based on a visual observation) ([3]; CO2): 2 | intensity of coloration (arbitrary scale based on a visual observation) ([3]; MAP (microaerophily)): 1 | intensity of coloration (arbitrary scale based on a visual observation) ([4]; 24 H, AE (aerobiosis)): 3 | intensity of coloration (arbitrary scale based on a visual observation) ([4]; 24 H, ANA (anaerobiosis)): 1 | intensity of coloration (arbitrary scale based on a visual observation) ([4]; 24 H, CO2): 3 | intensity of coloration (arbitrary scale based on a visual observation) ([4]; 24 H, MAP (microaerophily)): 1 | intensity of coloration (arbitrary scale based on a visual observation) ([4]; 48 H, AE (aerobiosis)): 3 | intensity of coloration (arbitrary scale based on a visual observation) ([4]; 48 H, ANA (anaerobiosis)): 1 | intensity of coloration (arbitrary scale based on a visual observation) ([4]; 48 H, CO2): 3 | intensity of coloration (arbitrary scale based on a visual observation) ([4]; 48 H, MAP (microaerophily)): 1 | intensity of coloration (arbitrary scale based on a visual observation) ([5]; 24 H, AE (aerobiosis)): 3* | intensity of coloration (arbitrary scale based on a visual observation) ([5]; 24 H, CO2): 2 | intensity of coloration (arbitrary scale based on a visual observation) ([5]; 24 H, MAP (microaerophily)): 2 | intensity of coloration (arbitrary scale based on a visual observation) ([5]; 48 H, AE (aerobiosis)): 3 | intensity of coloration (arbitrary scale based on a visual observation) ([5]; 48 H, ANA (anaerobiosis)): 1 | intensity of coloration (arbitrary scale based on a visual observation) ([5]; 48 H, CO2): 2 | intensity of coloration (arbitrary scale based on a visual observation) ([5]; 48 H, MAP (microaerophily)): 2

O=c1cc2oc3cc(OC4OC(CO)C(O)C(O)C4O)c(Cl)cc3nc-2c2ccccc12 [CBR-gal, 8-chloro-1,2-benzoresorufin-β-D-galactoside]
optimum concentration to obtain a clearly visible pink coloration without any background noise [6]: around 10 mg/100 ml | coloration of the bacterial colony [7]: pink coloration | coloration of the bacterial colony [8]: pink coloration | coloration of the bacterial colony [9]: pink coloration | coloration of the bacterial colony [10]: pink coloration | time until pink coloration ([11]; CBR-gal substrate 0.0078 mg/ml): — | time until pink coloration ([11]; CBR-gal substrate 0.0156 mg/ml): — | time until pink coloration ([11]; CBR-gal substrate 0.0313 mg/ml): — | time until pink coloration ([11]; CBR-gal substrate 0.0625 mg/ml): — | time until pink coloration ([11]; CBR-gal substrate 0.125 mg/ml): — | time until pink coloration ([11]; CBR-gal substrate 0.25 mg/ml): — | time until pink coloration ([11]; CBR-gal substrate 0.5 mg/ml): — | time until pink coloration ([12]; CBR-gal substrate 0.0078 mg/ml): — | time until pink coloration ([12]; CBR-gal substrate 0.0156 mg/ml): — | time until pink coloration ([12]; CBR-gal substrate 0.0313 mg/ml): — | time until pink coloration ([12]; CBR-gal substrate 0.0625 mg/ml): — | time until pink coloration ([12]; CBR-gal substrate 0.125 mg/ml): — | time until pink coloration ([12]; CBR-gal substrate 0.25 mg/ml): — | time until pink coloration ([12]; CBR-gal substrate 0.5 mg/ml): — | time until pink coloration ([13]; CBR-gal substrate 0.0078 mg/ml): — | time until pink coloration ([13]; CBR-gal substrate 0.0156 mg/ml): — | time until pink coloration ([13]; CBR-gal substrate 0.0313 mg/ml): 24 h | time until pink coloration ([13]; CBR-gal substrate 0.0625 mg/ml): 4 h | time until pink coloration ([13]; CBR-gal substrate 0.125 mg/ml): 4 h | time until pink coloration ([13]; CBR-gal substrate 0.25 mg/ml): 2 h | time until pink coloration ([13]; CBR-gal substrate 0.5 mg/ml): 2* hours | time until pink coloration ([14]; CBR-gal substrate 0.0078 mg/ml): — | time until pink coloration ([14]; CBR-gal substrate 0.0156 mg/ml): — | time until pink coloration ([14]; CBR-gal substrate 0.0313 mg/ml): 24 h | time until pink coloration ([14]; CBR-gal substrate 0.0625 mg/ml): 4 h | time until pink coloration ([14]; CBR-gal substrate 0.125 mg/ml): 4 h | time until pink coloration ([14]; CBR-gal substrate 0.25 mg/ml): 2 h | time until pink coloration ([14]; CBR-gal substrate 0.5 mg/ml): 2 h | time until pink coloration ([15]; CBR-gal substrate 0.0078 mg/ml): — | time until pink coloration ([15]; CBR-gal substrate 0.0156 mg/ml): — | time until pink coloration ([15]; CBR-gal substrate 0.0313 mg/ml): 24 h | time until pink coloration ([15]; CBR-gal substrate 0.0625 mg/ml): 24 h | time until pink coloration ([15]; CBR-gal substrate 0.125 mg/ml): 24 h | time until pink coloration ([15]; CBR-gal substrate 0.25 mg/ml): 24 h | time until pink coloration ([15]; CBR-gal substrate 0.5 mg/ml): 24 h | time until pink coloration ([16]; CBR-gal substrate 0.0078 mg/ml): — | time until pink coloration ([16]; CBR-gal substrate 0.0156 mg/ml): — | time until pink coloration ([16]; CBR-gal substrate 0.0313 mg/ml): 24 h | time until pink coloration ([16]; CBR-gal substrate 0.0625 mg/ml): 4 h | time until pink coloration ([16]; CBR-gal substrate 0.125 mg/ml): 4 h | time until pink coloration ([16]; CBR-gal substrate 0.25 mg/ml): 2 h | time until pink coloration ([16]; CBR-gal substrate 0.5 mg/ml): 2 h
